What was measured:
EGFR = assay: Western blot degradation of EGFR (H1975 Cell); type: cell-based, Human; conditions: Table D2
Experimental: Conventional Western blot assay was performed to evaluate the effects of the compounds of the present disclosure on the expression of target proteins in cells.
(1) Cell Seeding and Protein Harvesting: The selected cells were processed according to the cell seeding procedure and protein harvesting procedure in Table III-2. Table III-2 Cell Seeding and Protein Harvesting Procedures
(2) To the collected supernatant, 5X SDS sample loading buffer was added, followed by denaturation at 95°C for 5 minutes. The denatured samples were then separated by SDS-PAGE electrophoresis on a polyacrylamide gel. Proteins were transferred to a nitrocellulose membrane (0.45 µm NC membrane), blocked with blocking buffer at room temperature for 1 hour, and subjected to antibody incubation and development procedures according to the antibody manufacturer's instructions (Cell Signaling Technology).
Half-Maximal Degradation Concentration value (the drug concentration required for degrading proteins by 50%, abbreviated as DC50) reads method: comparing the grayscale values of Western blot bands from drug-treated samples with those from blank DMSO-treated controls, and identifying the drug concentration range at which the grayscale value is half that of the DMSO-treated control bands.
DC50 values can be calculated using ImageJ software to measure grayscale values of Western blot bands from drug-treated samples. The concentration-response curve is fitted to estimate the drug concentration corresponding to half the grayscale value.
Target protein remaining (%) refers to the percentage of target protein remaining in hPBMC cells after treatment with protein degrader compounds.
Calculation method for target protein remaining (%): Use ImageJ software to measure grayscale values of Western blot bands from drug (protein degrader)-treated samples. The grayscale value of drug-treated bands is divided by that of internal control protein bands, and the resulting quotient is normalized to obtain the relative percentage of remaining target protein after protein degrader treatment.
Target protein degradation rate (%) = 100% - target protein remaining (%).

H1975 = assay: CCK-8 proliferation, NCI-H1975 (H1975); type: cell-based, Human; conditions: Homo sapiens, NCI-H1975; CCK-8; 96 hours; read-out: Inhibitory activity (IC50) on tumor cell proliferation, H1975
Outline: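 Cells seeded, then after 24 h treated with 10 concentrations (top 10 µM, 5-fold serial dilution) for a line-specific time at 37°C, 5% CO2. Viability read by CCK-8; IC50 fitted from growth-inhibition curves.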

SMILES | IC50 (H1975) | Degradation of substrate protein EGFR (substrate protein remaining %) (EGFR)
COC1CCN(c2nccc(Nc3cc4c(cn3)c(N3CCC(N(C)Cc5ccc(N6CCC(=O)NC6=O)cc5)CC3)nn4C(C)C)n2)CC1 [GT-06121, 1-(4-(((1-(1-isopropyl-6-((2-(4-methoxypiperidin-1-yl)pyrimidin-4-yl)amino)-1H-pyrazolo[4,3-c]pyridin-3-yl)piperidin-4-yl)(methyl)amino)methyl)phenyl)dihydropyrimidine-2,4(1H,3H)-dione] | – | A (A is defined as 0% ≤ substrate protein remaining % ≤ 80%)
COC1CCN(c2nccc(Nc3cc4c(cn3)c(N3CCC(N(C)Cc5cccc(N6CCC(=O)NC6=O)c5)CC3)nn4C(C)C)n2)CC1 [GT-06122, 1-(3-(((1-(1-isopropyl-6-((2-(4-methoxypiperidin-1-yl)pyrimidin-4-yl)amino)-1H-pyrazolo[4,3-c]pyridin-3-yl)piperidin-4-yl)(methyl)amino)methyl)phenyl)dihydropyrimidine-2,4(1H,3H)-dione] | – | A (A is defined as 0% ≤ substrate protein remaining % ≤ 80%)
COC1CCN(c2nccc(Nc3cc4c(cn3)c(N3CCC(N(C)Cc5cccc(NC6CCC(=O)NC6=O)c5)CC3)nn4C(C)C)n2)CC1 (centres unmarked) [GT-06123, 3-((3-(((1-(1-isopropyl-6-((2-(4-methoxypiperidin-1-yl)pyrimidin-4-yl)amino)-1H-pyrazolo[4,3-c]pyridin-3-yl)piperidin-4-yl)(methyl)amino)methyl)phenyl)amino)piperidine-2,6-dione] | – | A (A is defined as 0% ≤ substrate protein remaining % ≤ 80%)
O=C1CCN(c2ccc(CN3C4CCC3CN(c3ccc(-c5cc(F)c6c(c5)C(=O)N(C(C(=O)Nc5nccs5)c5ncn7c5CCC7)C6)cc3)C4)cn2)C(=O)N1 (centres unmarked) [GT-06256, 2-(6,7-dihydro-5H-pyrrolo[1,2-c]imidazol-1-yl)-2-(6-(4-(8-((6-(2,4-dioxotetrahydropyrimidin-1(2H)-yl)pyridin-3-yl)methyl)-3,8-diazabicyclo[3.2.1]octan-3-yl)phenyl)-4-fluoro-1-oxoisoindolin-2-yl)-N-(thiazol-2-yl)acetamide] | – | A (A is defined as 0% ≤ substrate protein remaining % ≤ 80%)
CN(Cc1ccc(N2CCC(=O)NC2=O)cc1)C1CCN(c2ccc(Nc3ncc4nc(Nc5ccccc5)n(C5CCCC5)c4n3)cc2)CC1 [GT-07092, 1-(4-(((1-(4-((9-cyclopentyl-8-(phenylamino)-9H-purin-2-yl)amino)phenyl)piperidin-4-yl)(methyl)amino)methyl)phenyl)dihydropyrimidine-2,4(1H,3H)-dione] | – | A (A is defined as 0% ≤ substrate protein remaining % ≤ 80%)
CN(Cc1ccc(N2CCC(=O)NC2=O)cn1)C1CCN(c2ccc(Nc3ncc4nc(Nc5ccccc5)n(C5CCCC5)c4n3)cc2)CC1 [GT-07093, 1-(6-(((1-(4-((9-cyclopentyl-8-(phenylamino)-9H-purin-2-yl)amino)phenyl)piperidin-4-yl)(methyl)amino)methyl)pyridin-3-yl)dihydropyrimidine-2,4(1H,3H)-dione] | – | A (A is defined as 0% ≤ substrate protein remaining % ≤ 80%)
CN(Cc1cccc(NC2CCC(=O)NC2=O)c1)C1CCN(c2ccc(Nc3ncc4nc(Nc5ccccc5)n(C5CCCC5)c4n3)cc2)CC1 (centres unmarked) [GT-07094, 3-((3-(((1-(4-((9-cyclopentyl-8-(phenylamino)-9H-purin-2-yl)amino)phenyl)piperidin-4-yl)(methyl)amino)methyl)phenyl)amino)piperidine-2,6-dione] | – | A (A is defined as 0% ≤ substrate protein remaining % ≤ 80%)

Now from value to compound, other results behind:

IC50 (H1975) | SMILES | Degradation of substrate protein EGFR (substrate protein remaining %) (EGFR)
10 to 50 nM | O=C1CCC(c2ccc(CN3C[C@@H]4C[C@H]3CN4c3ccc(-c4cc(F)c5c(c4)C(=O)N(C(C(=O)Nc4nccs4)c4ncn6c4CCC6)C5)cc3)cc2)C(=O)N1 (stereo partly drawn) [GT-05115, 2-(6,7-dihydro-5H-pyrrolo[1,2-c]imidazol-1-yl)-2-(6-(4-((1S,4S)-5-(4-(2,6-dioxopiperidin-3-yl)benzyl)-2,5-diazabicyclo[2.2.1]heptan-2-yl)phenyl)-4-fluoro-1-oxoisoindolin-2-yl)-N-(thiazol-2-yl)acetamide] | A (A is defined as 0% ≤ substrate protein remaining % ≤ 80%)
10 to 50 nM | O=C1CCN(c2ccc(CN3C[C@@H]4C[C@H]3CN4c3ccc(-c4cc(F)c5c(c4)C(=O)N(C(C(=O)Nc4nccs4)c4ncn6c4CCC6)C5)cc3)cc2)C(=O)N1 (stereo partly drawn) [GT-05116, 2-(6,7-dihydro-5H-pyrrolo[1,2-c]imidazol-1-yl)-2-(6-(4-((1S,4S)-5-(4-(2,4-dioxotetrahydropyrimidin-1(2H)-yl)benzyl)-2,5-diazabicyclo[2.2.1]heptan-2-yl)phenyl)-4-fluoro-1-oxoisoindolin-2-yl)-N-(thiazol-2-yl)acetamide] | A (A is defined as 0% ≤ substrate protein remaining % ≤ 80%)
10 to 50 nM | O=C1CCN(c2cccc(CN3C[C@@H]4C[C@H]3CN4c3ccc(-c4cc(F)c5c(c4)C(=O)N(C(C(=O)Nc4nccs4)c4ncn6c4CCC6)C5)cc3)c2)C(=O)N1 (stereo partly drawn) [GT-05117, 2-(6,7-dihydro-5H-pyrrolo[1,2-c]imidazol-1-yl)-2-(6-(4-((1S,4S)-5-(3-(2,4-dioxotetrahydropyrimidin-1(2H)-yl)benzyl)-2,5-diazabicyclo[2.2.1]heptan-2-yl)phenyl)-4-fluoro-1-oxoisoindolin-2-yl)-N-(thiazol-2-yl)acetamide] | A (A is defined as 0% ≤ substrate protein remaining % ≤ 80%)
50 to 100 nM | O=C1CCC(Nc2cccc(CN3C[C@@H]4C[C@H]3CN4c3ccc(-c4cc(F)c5c(c4)C(=O)N(C(C(=O)Nc4nccs4)c4ncn6c4CCC6)C5)cc3)c2)C(=O)N1 (stereo partly drawn) [GT-05118, 2-(6,7-dihydro-5H-pyrrolo[1,2-c]imidazol-1-yl)-2-(6-(4-((1S,4S)-5-(3-((2,6-dioxopiperidin-3-yl)amino)benzyl)-2,5-diazabicyclo[2.2.1]heptan-2-yl)phenyl)-4-fluoro-1-oxoisoindolin-2-yl)-N-(thiazol-2-yl)acetamide] | A (A is defined as 0% ≤ substrate protein remaining % ≤ 80%)
10 to 50 nM | O=C1CCN(c2ccc(CN3C[C@@H]4C[C@H]3CN4c3ccc(-c4cc(F)c5c(c4)C(=O)N(C(C(=O)Nc4nccs4)c4ncn6c4CCC6)C5)cc3)nc2)C(=O)N1 (stereo partly drawn) [GT-05119, 2-(6,7-dihydro-5H-pyrrolo[1,2-c]imidazol-1-yl)-2-(6-(4-((1S,4S)-5-((5-(2,4-dioxotetrahydropyrimidin-1(2H)-yl)pyridin-2-yl)methyl)-2,5-diazabicyclo[2.2.1]heptan-2-yl)phenyl)-4-fluoro-1-oxoisoindolin-2-yl)-N-(thiazol-2-yl)acetamide] | A (A is defined as 0% ≤ substrate protein remaining % ≤ 80%)
1 to 10 nM | O=C1CCC(c2ccc(CN3CCN(c4ccc(-c5cc(F)c6c(c5)C(=O)N(C(C(=O)Nc5nccs5)c5ncn7c5CCC7)C6)cc4)CC3)cc2)C(=O)N1 (centres unmarked) [GT-06163, 2-(6,7-dihydro-5H-pyrrolo[1,2-c]imidazol-1-yl)-2-(6-(4-(4-(4-(2,6-dioxopiperidin-3-yl)benzyl)piperazin-1-yl)phenyl)-4-fluoro-1-oxoisoindolin-2-yl)-N-(thiazol-2-yl)acetamide] | A (A is defined as 0% ≤ substrate protein remaining % ≤ 80%)
1 to 10 nM | O=C1CCN(c2ccc(CN3CCN(c4ccc(-c5cc(F)c6c(c5)C(=O)N(C(C(=O)Nc5nccs5)c5ncn7c5CCC7)C6)cc4)CC3)cc2)C(=O)N1 (centres unmarked) [GT-06164, 2-(6,7-dihydro-5H-pyrrolo[1,2-c]imidazol-1-yl)-2-(6-(4-(4-(4-(2,4-dioxotetrahydropyrimidin-1(2H)-yl)benzyl)piperazin-1-yl)phenyl)-4-fluoro-1-oxoisoindolin-2-yl)-N-(thiazol-2-yl)acetamide] | A (A is defined as 0% ≤ substrate protein remaining % ≤ 80%)
1 to 10 nM | O=C1CCN(c2cccc(CN3CCN(c4ccc(-c5cc(F)c6c(c5)C(=O)N(C(C(=O)Nc5nccs5)c5ncn7c5CCC7)C6)cc4)CC3)c2)C(=O)N1 (centres unmarked) [GT-06165, 2-(6,7-dihydro-5H-pyrrolo[1,2-c]imidazol-1-yl)-2-(6-(4-(4-(3-(2,4-dioxotetrahydropyrimidin-1(2H)-yl)benzyl)piperazin-1-yl)phenyl)-4-fluoro-1-oxoisoindolin-2-yl)-N-(thiazol-2-yl)acetamide] | A (A is defined as 0% ≤ substrate protein remaining % ≤ 80%)
